Where “and” joins values, the source holds several entries; their conditions need not be identical. Identical values can stand only once. Entries after “also recorded” stand apart in the source; their conditions may differ. Like-named read-outs stand apart in the source and are kept apart here. Ends that are not written are not given here.
Key:
[1] = molecular target: T1, mouse R1 (Mus musculus, UniProt P07742); settings: cited from earlier work
T1 construct: made in house; host or cells: R1: Hi5 or Sf9 insect cells (baculovirus); R2: E. coli
T1 sequence (P07742 1-792): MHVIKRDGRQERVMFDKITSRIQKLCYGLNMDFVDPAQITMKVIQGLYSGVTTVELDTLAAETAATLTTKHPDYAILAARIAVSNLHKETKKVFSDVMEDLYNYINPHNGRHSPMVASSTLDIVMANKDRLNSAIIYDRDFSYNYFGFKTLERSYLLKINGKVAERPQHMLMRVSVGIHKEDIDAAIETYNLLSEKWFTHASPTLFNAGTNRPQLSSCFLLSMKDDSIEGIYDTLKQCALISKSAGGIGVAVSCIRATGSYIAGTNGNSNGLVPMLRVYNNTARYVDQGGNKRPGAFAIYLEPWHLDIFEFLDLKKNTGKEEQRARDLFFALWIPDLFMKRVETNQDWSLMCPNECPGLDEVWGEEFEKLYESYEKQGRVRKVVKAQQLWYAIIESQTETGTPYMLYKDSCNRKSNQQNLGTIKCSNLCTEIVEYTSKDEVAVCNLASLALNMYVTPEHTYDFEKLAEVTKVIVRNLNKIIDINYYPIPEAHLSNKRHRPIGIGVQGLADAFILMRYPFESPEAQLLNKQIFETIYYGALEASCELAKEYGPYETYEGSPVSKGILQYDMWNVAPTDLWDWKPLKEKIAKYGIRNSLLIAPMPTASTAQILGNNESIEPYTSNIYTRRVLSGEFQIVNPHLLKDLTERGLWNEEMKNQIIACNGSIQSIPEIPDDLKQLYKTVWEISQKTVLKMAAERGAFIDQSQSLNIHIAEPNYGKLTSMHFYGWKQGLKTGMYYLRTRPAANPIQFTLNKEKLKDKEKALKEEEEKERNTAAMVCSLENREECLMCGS

[2] = molecular target: T2, mammalian ribonucleotide reductase (Bos taurus, UniProt Q32LP1); assay: Peptide inhibition of mammalian ribonucleotide reductase activity; assay type: biochemical; settings: for % RI (relative inhibitory potency, (IC50 AcFTLDADF)/(IC50 peptide analog)): mean and average deviation of 2-3 determinations, others single
T2 sequence (Q32LP1 1-791): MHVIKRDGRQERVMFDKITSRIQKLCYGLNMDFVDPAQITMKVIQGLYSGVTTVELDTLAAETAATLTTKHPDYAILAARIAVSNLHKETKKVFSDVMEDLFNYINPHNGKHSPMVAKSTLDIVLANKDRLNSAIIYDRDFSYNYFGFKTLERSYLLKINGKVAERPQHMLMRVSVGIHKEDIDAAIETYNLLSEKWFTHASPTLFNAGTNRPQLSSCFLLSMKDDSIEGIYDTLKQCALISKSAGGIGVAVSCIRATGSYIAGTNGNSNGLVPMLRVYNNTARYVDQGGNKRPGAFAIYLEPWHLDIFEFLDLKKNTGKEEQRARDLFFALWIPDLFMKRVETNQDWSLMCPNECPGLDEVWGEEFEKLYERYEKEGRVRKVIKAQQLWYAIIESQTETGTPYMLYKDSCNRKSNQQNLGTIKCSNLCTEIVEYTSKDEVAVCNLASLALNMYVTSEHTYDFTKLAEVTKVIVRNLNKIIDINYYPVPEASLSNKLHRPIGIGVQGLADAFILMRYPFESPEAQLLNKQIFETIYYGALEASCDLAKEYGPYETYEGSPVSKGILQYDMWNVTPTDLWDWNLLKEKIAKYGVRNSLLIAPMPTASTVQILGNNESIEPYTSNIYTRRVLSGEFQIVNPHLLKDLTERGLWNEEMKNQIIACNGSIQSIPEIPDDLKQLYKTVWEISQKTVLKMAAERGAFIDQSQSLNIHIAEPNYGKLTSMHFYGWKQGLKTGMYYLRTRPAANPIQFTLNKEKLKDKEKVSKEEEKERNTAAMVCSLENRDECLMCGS
Text: All three methods yielded acceptable results, with the following limitations. Method 1 is useful for the assay of CDP to dCDP and ADP to dADP conversions, but is not useful for the assay of GDP reduction. It is also sensitive to large changes in the nucleotide composition of the assay medium. […] Method 2 is the easiest to perform on purified enzymes, and can be used with all four NDPs as substrates, but is difficult to use with crude enzyme, largely because contaminating phosphatase activities can skew results. Method 3 is usable with all four NDPs, but is also somewhat sensitive to large changes in the nucleotide composition of the assay medium and requires column separation at 4° C.

[3] = molecular target: S. cerevisiae ribonucleotide reductase (Saccharomyces cerevisiae, UniProt P21524); assay: Peptide inhibition of S. cerevisiae ribonucleotide reductase activity; assay type: biochemical; settings: Table 9; read-out: IC50, Yeast RR
[4] = molecular target: T3, E. coli RR (Escherichia coli, UniProt P00452); settings: cited from earlier work
T3 sequence (P00452 whole entry, looked up): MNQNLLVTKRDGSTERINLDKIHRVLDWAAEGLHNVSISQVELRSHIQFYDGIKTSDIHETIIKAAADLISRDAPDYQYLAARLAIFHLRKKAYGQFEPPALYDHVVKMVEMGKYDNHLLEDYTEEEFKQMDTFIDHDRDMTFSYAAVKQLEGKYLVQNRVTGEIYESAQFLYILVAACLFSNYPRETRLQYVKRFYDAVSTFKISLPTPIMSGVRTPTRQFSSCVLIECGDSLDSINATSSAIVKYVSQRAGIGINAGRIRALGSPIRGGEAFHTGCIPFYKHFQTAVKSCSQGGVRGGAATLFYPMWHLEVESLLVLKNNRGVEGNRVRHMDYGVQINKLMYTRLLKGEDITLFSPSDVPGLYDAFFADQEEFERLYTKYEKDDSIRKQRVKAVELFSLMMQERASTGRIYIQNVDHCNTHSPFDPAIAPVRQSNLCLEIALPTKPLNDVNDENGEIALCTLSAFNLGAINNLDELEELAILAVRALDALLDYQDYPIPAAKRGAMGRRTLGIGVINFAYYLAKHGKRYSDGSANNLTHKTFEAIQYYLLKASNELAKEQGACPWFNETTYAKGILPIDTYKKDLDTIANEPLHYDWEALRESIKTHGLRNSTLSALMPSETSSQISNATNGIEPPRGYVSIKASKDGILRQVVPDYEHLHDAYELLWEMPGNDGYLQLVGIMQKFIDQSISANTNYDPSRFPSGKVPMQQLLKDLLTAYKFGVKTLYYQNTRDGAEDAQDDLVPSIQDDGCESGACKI

[5] = molecular target: T2, mammalian ribonucleotide reductase; settings: cited from earlier work
[6] = molecular target: T4, RR (Mus musculus, UniProt P07742); assay: Inhibition of RR by Compound 23; assay type: biochemical
T4 sequence (P07742 1-792): T1 sequence (P07742 1-792)
Text: (§1) Standard assays of RR activity used in the studies presented herein involve the conversion of [^3 H]-ribonucleoside diphosphate (NDP) to [^3 H]-deoxyribonucleoside diphosphate (dNDP), using dithiothreitol as the external reductant. Three methods were examined: Method 1 (Steeper et al., 1970, Anal. Biochem. 34:123-130), involving the conversion of diphosphates to nucleosides by enzymatic digestion, followed by the separation of deoxynucleoside from nucleoside on Dowex-1-borate columns; Method 2 (Moore et al., 1974, Biochemistry 13:2904-2907), involving the direct separation of dNDP from NDP on aminophenylboronate columns; Method 3 (Sato et al., 1983, Anal. Biochem. 135:431-435) involving the conversion of diphosphates to nucleosides by enzymatic digestion, followed by the separation of deoxynucleoside from nucleoside on polyethyleneimine-cellulose columns.
All three methods yielded acceptable results, with the following limitations. Method 1 is useful for the assay of CDP to dCDP and ADP to dADP conversions, but is not useful for the assay of GDP reduction. It is also sensitive to large changes in the nucleotide composition of the assay medium. Thus, it is quite useful for standard assays (purifications, tests of peptide inhibition), but difficult to apply when concentrations and substrate are widely varied. Method 2 is the easiest to perform on purified enzymes, and can be used with all four NDPs as substrates, but is difficult to use with crude enzyme, largely because contaminating phosphatase activities can skew results. Method 3 is usable with all four NDPs, but is also somewhat sensitive to large changes in the nucleotide composition of the assay medium and requires column separation at 4° C.

[7] = molecular target: E. coli RR (Escherichia coli, UniProt P00452); settings: cited from earlier work; remark: listed apart in the source
[8] = molecular target: T4, RR; assay: Biological Evaluation of Compound (8): RR activity; assay type: biochemical
Text: as §1
All three methods yielded acceptable results, with the following limitations. Method 1 is useful for the assay of CDP to dCDP and ADP to dADP conversions, but is not useful for the assay of GDP reduction. It is also sensitive to large changes in the nucleotide composition of the assay medium. Thus, it is quite useful for standard assays (purifications, tests of peptide inhibition), but difficult to apply when concentrations and substrate are widely varied. […]

[9] = Table 8, Dixon plots of 4-6 concentration points, ranges are two independent determinations, read-out: IC50

Chain of S. cerevisiae ribonucleotide reductase (P21524 whole entry): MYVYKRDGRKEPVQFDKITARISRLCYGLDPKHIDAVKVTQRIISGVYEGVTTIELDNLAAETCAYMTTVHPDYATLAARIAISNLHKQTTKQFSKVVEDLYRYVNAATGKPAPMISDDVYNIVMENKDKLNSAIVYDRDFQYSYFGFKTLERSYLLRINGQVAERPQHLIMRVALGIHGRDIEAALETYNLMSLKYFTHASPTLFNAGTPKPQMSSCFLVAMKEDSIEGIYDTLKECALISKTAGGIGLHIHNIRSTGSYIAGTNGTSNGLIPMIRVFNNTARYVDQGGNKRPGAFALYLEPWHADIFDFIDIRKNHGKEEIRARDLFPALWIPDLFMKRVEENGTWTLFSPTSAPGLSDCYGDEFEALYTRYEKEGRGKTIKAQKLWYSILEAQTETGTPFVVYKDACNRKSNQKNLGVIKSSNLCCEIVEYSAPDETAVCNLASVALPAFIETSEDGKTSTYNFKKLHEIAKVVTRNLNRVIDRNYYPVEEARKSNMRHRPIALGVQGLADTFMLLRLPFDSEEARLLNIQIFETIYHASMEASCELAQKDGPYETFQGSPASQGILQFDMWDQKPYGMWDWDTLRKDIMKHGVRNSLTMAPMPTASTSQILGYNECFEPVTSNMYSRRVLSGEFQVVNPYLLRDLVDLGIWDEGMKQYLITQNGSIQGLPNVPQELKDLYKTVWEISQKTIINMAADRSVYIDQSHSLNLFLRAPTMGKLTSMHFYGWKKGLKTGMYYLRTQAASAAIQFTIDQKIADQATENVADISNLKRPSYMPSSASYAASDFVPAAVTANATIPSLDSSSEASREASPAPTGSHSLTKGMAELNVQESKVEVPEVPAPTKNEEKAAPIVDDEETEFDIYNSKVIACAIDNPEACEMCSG

Ac-YTLDADF [Ac-YTLDADF]
Fold lower affinity for mR1 than AcFTLDADF [1]: 15 fold
Fold decrease in RI relative to N-AcFTLDADF ([2]; Table 8): five to ten
% RI (relative inhibitory potency, (IC50 AcFTLDADF)/(IC50 peptide analog)) ([2]; Table 8): 7%

Ac-FTLDLDF [Ac-FTLDLDF]
% RI (relative inhibitory potency, (IC50 AcFTLDADF)/(IC50 peptide analog)) ([2]; Table 8): 35%

Ac-NSFTLDADF
IC50 [2, 9]: 9 to 15 µM

Ac-FTVDADF [Ac-FTVDADF]
% RI (relative inhibitory potency, (IC50 AcFTLDADF)/(IC50 peptide analog)) ([2]; Table 8): 35%

FTLDADF [FTLDADF, Phe-Thr-Leu-Asp-Ala-Asp-Phe]
IC50 [2, 9]: > 400 µM

Ac-FTADADF [Ac-FTADADF]
% RI (relative inhibitory potency, (IC50 AcFTLDADF)/(IC50 peptide analog)) ([2]; Table 8): 4.9 ± 0.60%

Ac-FTLDANF [Ac-FTLDANF]
Fold decrease in RI relative to N-AcFTLDADF ([2]; Table 8): three to four
% RI (relative inhibitory potency, (IC50 AcFTLDADF)/(IC50 peptide analog)) ([2]; Table 8): 23 ± 1.0%

Ac-FSLDADF [Ac-FSLDADF, Acetyl-Phe-Ser-Leu-Asp-Ala-Asp-Phe]
IC50 ([2]; Table 8, Dixon plots of 4-6 concentration points, ranges are two independent determinations): 40 to 42 µM

Ac-LDADF [Ac-LDADF]
IC50 [2, 9]: > 400 µM

Ac-SFTLDADF
Affinity for mR1 compared with AcFTLDADF [1]: same affinity
% RI (relative inhibitory potency, (IC50 AcFTLDADF)/(IC50 peptide analog)) ([2]; Table 8): 100%

Ac-FTFNEDF [AcFTFNEDF]
IC50 ([2]; Table 9, read-out: IC50, Mammalian RR): 100 µM

Ac-TFNEDF [AcTFNEDF]
IC50 [3]: 600 µM

Ac-FALDADF [Ac-FALDADF, Acetyl-Phe-Ala-Leu-Asp-Ala-Asp-Phe]
IC50 [2, 9]: 35 to 40 µM

DDLSNFQL [reference compound]
Inhibition of E. coli RR [4]: inhibits eRR
Inhibition of mRR [5]: does not inhibit mRR

SFTLDADF
IC50 [2, 9]: 80 µM

Acetyl-(p-azido-Phe)-Thr-Leu-Asp-Ala-Asp-Phe [Ac-F(4'-N3)TLDADF]
Fold decrease in RI relative to N-AcFTLDADF ([2]; Table 8): five to ten
% RI (relative inhibitory potency, (IC50 AcFTLDADF)/(IC50 peptide analog)) ([2]; Table 8): 10%

Ac-FTLNADF [Ac-FTLNADF, Acetyl-Phe-Thr-Leu-Asn-Ala-Asp-Phe]
IC50 [2, 9]: 25 to 29 µM

Acetyl-(p-amino-Phe)-Thr-Leu-Asp-Ala-Asp-Phe [Ac-F(4'-NH2)TLDADF]
Fold decrease in RI relative to N-AcFTLDADF ([2]; Table 8): five to ten
% RI (relative inhibitory potency, (IC50 AcFTLDADF)/(IC50 peptide analog)) ([2]; Table 8): 10%

CC(=O)N[C@@H](Cc1ccccc1)C(=O)NC[C@@H]1O[C@@H]([C@@H](C)C(=O)N[C@@H](CC(=O)O)C(=O)N[C@@H](Cc2ccccc2)C(=O)O)[C@@H](OCC(=O)O)C[C@H]1OCC(C)C [Compound 23]
Fold decrease in RI relative to N-AcFTLDADF ([2]; Table 8): three to four
Residual Relative Activity ([6]; 30 μM Compound 23): 86 ± 8 percentage
Residual Relative Activity ([6]; 100 μM Compound 23): 73 ± 6 percentage
Residual Relative Activity ([6]; 300 μM Compound 23): 64 ± 6 percentage
Residual Relative Activity ([6]; 500 μM Compound 23): 48 ± 4 percentage
Residual Relative Activity ([6]; 1000 μM Compound 23): 32 ± 6 percentage

Ac-FLDADF [Ac-F-LDADF]
IC50 [2, 9]: 412 µM

Ac-FTFDADF [Ac-FTFDADF]
% RI (relative inhibitory potency, (IC50 AcFTLDADF)/(IC50 peptide analog)) ([2]; Table 8): 18 ± 4.2%

Ac-FTLDADF [Ac-FTLDADF, Acetyl-Phe-Thr-Leu-Asp-Ala-Asp-Phe]
IC50 ([7]; E. coli R1 protein / RR): > 1000 µM
Inhibition of E. coli RR [7]: at best a very poor inhibitor of eRR; also recorded: failure to significantly inhibit E. coli RR up to concentrations of 1 mM
IC50 [2, 9]: 8 to 20 µM
RR Activity ([8]; compound at 10 μM): 0.39 ± 0.07
RR Activity ([8]; compound at 66 μM): 0.12

Ac-FTLDADFAA
% RI (relative inhibitory potency, (IC50 AcFTLDADF)/(IC50 peptide analog)) ([2]; Table 8): 2.1%

Ac-FTLDAEF [Ac-FTLDAEF]
Fold decrease in RI relative to N-AcFTLDADF ([2]; Table 8): > 50 fold
% RI (relative inhibitory potency, (IC50 AcFTLDADF)/(IC50 peptide analog)) ([2]; Table 8): 1.7 ± 0.15%

Ac-FTLAADF [Ac-FTLAADF]
Fold decrease in RI relative to N-AcFTLDADF ([2]; Table 8): > 30 fold
% RI (relative inhibitory potency, (IC50 AcFTLDADF)/(IC50 peptide analog)) ([2]; Table 8): 2.9 ± 0.4%

Ac-FTLDADL [Ac-FTLDADL]
Fold decrease in RI relative to N-AcFTLDADF ([2]; Table 8): over 40 fold
% RI (relative inhibitory potency, (IC50 AcFTLDADF)/(IC50 peptide analog)) ([2]; Table 8): 3% and < 3%

FA-DAP-C(N)FTLDADF: folate-peptide conjugate: γ-1,5-diaminopentane folate condensate coupled to thiol of NCFTLDADF via sulfo-MBS (not fully specified (residue 2))
RR inhibition compared with AcFTLDADF [2]: comparable to AcFTLDADF

— US6030942A, “Peptides peptide analogs peptidomimetics and other small molecules useful for inhibiting the activity of ribonucleotide reductase” (The Trustees of the University of Pennsylvania, priority 1998, dated 2000)
